Reference: patent publication US11078193B2 (priority 2014, dated 2021)

Columns and labels:
HBV [1] = assay: anti-HBV activity, HepG2.2.15 stable transfected cell line, HBV DNA from secreted virions by realtime PCR; format: cell-based; conditions: Hepatitis B virus, 144 h, HepG2.2.15 cells, 6 days of treatment
HBV [2] = assay: anti HBV activity, HepG2.117 inducibly HBV producing cell line (Tet-off), intracellular HBV DNA by realtime PCR; format: cell-based; conditions: Hepatitis B virus, 72 h, HepG2.117 cells, 3 days of treatment
[3] = Cytotoxicity, HepG2 cells, Resazurin assay; format: cell-based; conditions: human
[4] = ATP based toxicity assay (ATPlite), HepG2 cell line; conditions: human, HepG2 cells, ATPlite (ATP levels)
Procedure: Alternatively, cytotoxicity was determined via an ATP-assay: The ATPlite kit from Perkin Elmer was used to assess compound cytotoxicity on the HepG2 cell line by determination of the ATP (adenosine triphosphate) levels. ATP is a marker for functional integrity and cell viability, because it is present in all metabolically active cells and any form of cell injury will result in a rapid decline in cellular ATP concentration. After compound incubation, 1 volume of ATPlite solution was added to the cells and the luminescence signal was measured.

Compound | EC50 (HBV [1]) [nM] | EC50 (HBV [2]) [nM] | CC50 at 4 days [3] [nM] | CC50 at 4 days [4] [nM]
CC[C@H](NS(=O)(=O)c1cc(C(=O)Nc2ccnc(C#N)c2)n(C)c1)C(F)(F)F [Compound 41, N-(2-cyano-4-pyridyl)-1-methyl-4-[[(1S)-1-(trifluoromethyl)propyl]-sulfamoyl]pyrrole-2-carboxamide] | 70 | 100 | > 25000 | 
Cn1cc(S(=O)(=O)NC2(C(F)(F)F)CCC2)cc1C(=O)Nc1ccnc(C#N)c1 [Compound 42, N-(2-cyano-4-pyridyl)-1-methyl-4-[[1-(trifluoromethyl)cyclobutyl]-sulfamoyl]pyrrole-2-carboxamide] | 50 | 80 | > 25000 | 
Cn1cc(S(=O)(=O)NC2(C(F)(F)F)CC2)c(Cl)c1C(=O)Nc1ccnc(Cl)c1 [Compound 45, 3-chloro-N-(2-chloro-4-pyridyl)-1-methyl-4-[[1-(trifluoromethyl)cyclopropyl]-sulfamoyl]pyrrole-2-carboxamide] | 50 | 40 | > 25000 | 
CC[C@H](NS(=O)(=O)c1cc(C(=O)Nc2ccnc(Cl)c2)n(C)c1)C(F)(F)F [Compound 47, N-(2-chloro-4-pyridyl)-1-methyl-4-[[(1S)-1-(trifluoromethyl)propyl]-sulfamoyl]pyrrole-2-carboxamide] | 60 | 40 | > 25000 | 
Cn1cc(S(=O)(=O)NC2(C(F)(F)F)CCC2)cc1C(=O)Nc1ccnc(Cl)c1 [Compound 48, N-(2-chloro-4-pyridyl)-1-methyl-4-[[1-(trifluoromethyl)cyclobutyl]-sulfamoyl]pyrrole-2-carboxamide] | 60 | 40 | > 25000 | 
Cn1cc(S(=O)(=O)NC2(C(F)(F)F)CC2)cc1C(=O)Nc1ccnc(C#N)c1 [Compound 49, N-(2-cyano-4-pyridyl)-1-methyl-4-[[1-(trifluoromethyl)cyclopropyl]-sulfamoyl]pyrrole-2-carboxamide] | 110 | 110 | > 25000 | 
C[C@@H](NS(=O)(=O)c1cn(C)c(C(=O)Nc2ccnc(C(F)(F)F)c2)c1F)C(C)(F)F [Compound 60, 4-[[(1R)-2,2-difluoro-1-methyl-propyl]sulfamoyl]-3-fluoro-1-methyl-N-[2-(trifluoromethyl)-4-pyridyl]pyrrole-2-carboxamide] | 240 | 40 | > 25000 | 
Cn1cc(S(=O)(=O)NC2(C)CC(F)(F)C2)c(Cl)c1C(=O)Nc1ccnc(C#N)c1 [Compound 64, 3-chloro-N-(2-cyano-4-pyridyl)-4-[(3,3-difluoro-1-methyl-cyclobutyl)-sulfamoyl]-1-methyl-pyrrole-2-carboxamide] | 20 | 30 | 23000 | 
Cn1cc(S(=O)(=O)NC2(C)CC(F)(F)C2)c(Cl)c1C(=O)Nc1ccnc(Cl)c1 [Compound 65, 3-chloro-N-(2-chloro-4-pyridyl)-4-[(3,3-difluoro-1-methyl-cyclobutyl)-sulfamoyl]-1-methyl-pyrrole-2-carboxamide] | 20 | 30 | > 25000 | 
CC(C)NS(=O)(=O)c1cn(C)c(C(=O)Nc2ccnc(C(F)F)c2)c1F [Compound 82, N-[2-(difluoromethyl)-4-pyridyl]-3-fluoro-4-(isopropylsulfamoyl)-1-methyl-pyrrole-2-carboxamide] | 70 | 100 | > 25000 | 
CC[C@@H](NS(=O)(=O)c1cn(C)c(C(=O)Nc2ccnc(C(F)F)c2)c1Cl)C(F)(F)F [Compound 85, 3-chloro-N-[2-(difluoromethyl)-4-pyridyl]-1-methyl-4-[[(1R)-1-(trifluoromethyl)propyl]sulfamoyl]pyrrole-2-carboxamide] | 20 | 40 | 24000 | 
CC[C@@H](NS(=O)(=O)c1cn(C)c(C(=O)Nc2ccnc(C(F)F)c2)c1F)C(F)(F)F [Compound 87, N-[2-(difluoromethyl)-4-pyridyl]-3-fluoro-1-methyl-4-[[(1R)-1-(trifluoromethyl)propyl]sulfamoyl]pyrrole-2-carboxamide] | 20 | 30 | > 25000 | 
C[C@@H](NS(=O)(=O)c1cn(C)c(C(=O)Nc2ccnc(C#N)c2)c1Cl)C(C)(F)F [Compound 96, 3-chloro-N-(2-cyano-4-pyridyl)-4-[[(1R)-2,2-difluoro-1-methyl-propyl]sulfamoyl]-1-methyl-pyrrole-2-carboxamide] | 40 | 40 | > 25000 | 
Cn1cc(S(=O)(=O)NC2(C)CC(F)(F)C2)c(Cl)c1C(=O)Nc1ccnc(F)c1 [Compound 116, 3-chloro-4-[(3,3-difluoro-1-methyl-cyclobutyl)sulfamoyl]-N-(2-fluoro-4-pyridyl)-1-methyl-pyrrole-2-carboxamide] | 210 | 20 | > 25000 | 
C[C@@H](NS(=O)(=O)c1cn(C)c(C(=O)Nc2ccnc(Cl)c2F)c1F)C(F)(F)F [Compound 118, N-(2-chloro-3-fluoro-4-pyridyl)-3-fluoro-1-methyl-4-[[(1R)-2,2,2-trifluoro-1-methyl-ethyl]sulfamoyl]pyrrole-2-carboxamide] | 100 | 10 | > 25000 | 
C[C@@H](NS(=O)(=O)c1cn(C)c(C(=O)Nc2ccnc(Br)c2)c1F)C(C)(F)F [Compound 124, N-(2-bromo-4-pyridyl)-4-[[(1R)-2,2-difluoro-1-methyl-propyl]sulfamoyl]-3-fluoro-1-methyl-pyrrole-2-carboxamide] | < 100 | 10 | > 25000 | 
C[C@@H](NS(=O)(=O)c1cn(C)c(C(=O)Nc2ccnc(Cl)c2F)c1F)C(C)(F)F [Compound 125, N-(2-chloro-3-fluoro-4-pyridyl)-4-[[(1R)-2,2-difluoro-1-methyl-propyl]sulfamoyl]-3-fluoro-1-methyl-pyrrole-2-carboxamide] | < 100 | 8 | > 25000 | 
C[C@@H](NS(=O)(=O)c1cn(C)c(C(=O)Nc2cc(Cl)nc(Cl)c2)c1F)C(F)(F)F [Compound 126, N-(2,6-dichloro-4-pyridyl)-3-fluoro-1-methyl-4-[[(1R)-2,2,2-trifluoro-1-methyl-ethyl]sulfamoyl]pyrrole-2-carboxamide] | 20 | 20 | > 25000 | 
C[C@@H](NS(=O)(=O)c1cn(C)c(C(=O)Nc2ccnc(C(C)(F)F)c2)c1F)C(F)(F)F [Compound 129, N-[2-(1,1-difluoroethyl)-4-pyridyl]-3-fluoro-1-methyl-4-[[(1R)-2,2,2-trifluoro-1-methyl-ethyl]sulfamoyl]pyrrole-2-carboxamide] | 810 | 400 | > 25000 | 
Cn1cc(S(=O)(=O)NC2(C)CC(F)(F)C2)c(F)c1C(=O)Nc1cc(Cl)nc(Cl)c1 [Compound 136, N-(2,6-dichloro-4-pyridyl)-4-[(3,3-difluoro-1-methyl-cyclobutyl)sulfamoyl]-3-fluoro-1-methyl-pyrrole-2-carboxamide] |  | 20 |  | 9500
Cc1cc(NC(=O)c2c(Cl)c(S(=O)(=O)N[C@H](C)C(F)(F)F)cn2C)cc(F)n1 [Compound 137, 3-chloro-N-(2-fluoro-6-methyl-4-pyridyl)-1-methyl-4-[[(1R)-2,2,2-trifluoro-1-methyl-ethyl]sulfamoyl]pyrrole-2-carboxamide] | < 100 | 20 | > 25000 | 
C[C@@H](NS(=O)(=O)c1cn(C)c(C(=O)Nc2ccnc(C#N)c2F)c1Cl)C(F)(F)F [Compound 143, 3-chloro-N-(2-cyano-3-fluoro-4-pyridyl)-1-methyl-4-[[(1R)-2,2,2-trifluoro-1-methyl-ethyl]sulfamoyl]pyrrole-2-carboxamide] | 180 | 20 | > 25000 | 
C[C@@H](NS(=O)(=O)c1cn(C)c(C(=O)Nc2ccnc(CF)c2)c1Cl)C(F)(F)F [Compound 145, 3-chloro-N-[2-(fluoromethyl)-4-pyridyl]-1-methyl-4-[[(1R)-2,2,2-trifluoro-1-methyl-ethyl]sulfamoyl]pyrrole-2-carboxamide] |  | 80 |  | > 25000
Cn1cc(S(=O)(=O)NC2(C)CC(F)(F)C2)c(Cl)c1C(=O)Nc1ccnc(C#N)c1F [Compound 162, 3-chloro-N-(2-cyano-3-fluoro-4-pyridyl)-4-[(3,3-difluoro-1-methyl-cyclobutyl)sulfamoyl]-1-methyl-pyrrole-2-carboxamide] |  | 20 |  | > 25000
Cn1cc(S(=O)(=O)NC2CCC2(F)F)c(F)c1C(=O)Nc1ccnc(Cl)c1 (stereo not drawn) [Compound 174, N-(2-chloro-4-pyridyl)-4-[(2,2-difluorocyclobutyl)sulfamoyl]-3-fluoro-1-methyl-pyrrole-2-carboxamide] |  | 110 |  | > 25000
Cn1cc(S(=O)(=O)NC(C)(C)C(F)(F)F)c(F)c1C(=O)Nc1ccnc(C#N)c1 [Compound 188, N-(2-cyano-4-pyridyl)-3-fluoro-1-methyl-4-[(2,2,2-trifluoro-1,1-dimethyl-ethyl)sulfamoyl]pyrrole-2-carboxamide] |  | 100 |  | > 25000
Cn1cc(S(=O)(=O)NC(C)(C)C(F)(F)F)c(F)c1C(=O)Nc1cc(F)nc(F)c1 [Compound 189, N-(2,6-difluoro-4-pyridyl)-3-fluoro-1-methyl-4-[(2,2,2-trifluoro-1,1-dimethyl-ethyl)sulfamoyl]pyrrole-2-carboxamide] |  | 60 |  | > 25000
